# Measured values from ChEMBL document CHEMBL1201862, “PubChem BioAssay data set” (2004).
# The source made the active and inactive calls.
# Legend:
# [1] = target: T1, Acyl-homoserine lactone acylase PvdQ (Pseudomonas aeruginosa (strain LESB58), UniProt Q9I194); assay: PvdQ acylase enzyme activity blockers – biochemical, fluorescence, plate reader and imaging, cherry-picks, dose response (AID 493231)
# T1 sequence (Q9I194 whole entry): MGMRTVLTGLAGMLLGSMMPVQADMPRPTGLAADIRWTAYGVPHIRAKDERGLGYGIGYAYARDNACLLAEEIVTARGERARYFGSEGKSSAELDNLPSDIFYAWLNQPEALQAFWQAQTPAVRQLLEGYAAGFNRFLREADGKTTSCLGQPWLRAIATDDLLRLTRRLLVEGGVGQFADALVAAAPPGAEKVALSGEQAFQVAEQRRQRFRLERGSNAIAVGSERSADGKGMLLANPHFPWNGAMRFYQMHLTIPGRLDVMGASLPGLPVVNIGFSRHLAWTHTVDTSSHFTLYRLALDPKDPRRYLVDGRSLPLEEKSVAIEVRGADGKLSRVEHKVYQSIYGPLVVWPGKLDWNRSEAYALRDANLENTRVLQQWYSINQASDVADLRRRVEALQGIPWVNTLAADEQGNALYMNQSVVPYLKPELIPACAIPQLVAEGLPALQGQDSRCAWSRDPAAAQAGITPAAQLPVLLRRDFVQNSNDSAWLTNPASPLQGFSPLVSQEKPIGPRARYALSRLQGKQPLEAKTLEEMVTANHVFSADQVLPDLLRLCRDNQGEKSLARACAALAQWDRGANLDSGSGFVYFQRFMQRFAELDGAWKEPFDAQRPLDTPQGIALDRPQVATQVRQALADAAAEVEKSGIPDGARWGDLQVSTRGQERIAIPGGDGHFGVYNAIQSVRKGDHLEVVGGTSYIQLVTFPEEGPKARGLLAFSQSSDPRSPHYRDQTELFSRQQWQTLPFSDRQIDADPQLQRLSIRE
# [2] = target: G-protein coupled receptor 55 (Homo sapiens, UniProt Q9Y2T6); assay: SAR Analysis of Selective Antagonists of GPR55 using an Image-Based Assay - Set 4. [Related pubchem assays (depositor defined):AID2013, AID2026]; assay type: functional;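 also: antagonism of response to 5 µM lysophosphatidylinositol agonist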
# G-protein coupled receptor 55, sequence (Q9Y2T6 whole entry): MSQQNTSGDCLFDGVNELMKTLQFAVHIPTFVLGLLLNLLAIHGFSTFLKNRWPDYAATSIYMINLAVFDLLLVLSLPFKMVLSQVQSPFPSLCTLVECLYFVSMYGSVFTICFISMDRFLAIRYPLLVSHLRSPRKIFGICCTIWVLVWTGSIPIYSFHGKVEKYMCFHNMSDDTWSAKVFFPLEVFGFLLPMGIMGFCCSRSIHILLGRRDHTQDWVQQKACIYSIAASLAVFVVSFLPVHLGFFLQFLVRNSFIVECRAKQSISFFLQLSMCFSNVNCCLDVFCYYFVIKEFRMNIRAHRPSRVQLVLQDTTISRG
# [3] = target: T2, Cannabinoid receptor 2 (Homo sapiens, UniProt P34972); assay: SAR analysis of antagonists of the Cannabinoid Receptor 2 using an Image-Based Assay - Set 3. [Related pubchem assays (depositor defined):AID2013, AID2026]; assay type: functional
# T2 sequence (P34972 whole entry): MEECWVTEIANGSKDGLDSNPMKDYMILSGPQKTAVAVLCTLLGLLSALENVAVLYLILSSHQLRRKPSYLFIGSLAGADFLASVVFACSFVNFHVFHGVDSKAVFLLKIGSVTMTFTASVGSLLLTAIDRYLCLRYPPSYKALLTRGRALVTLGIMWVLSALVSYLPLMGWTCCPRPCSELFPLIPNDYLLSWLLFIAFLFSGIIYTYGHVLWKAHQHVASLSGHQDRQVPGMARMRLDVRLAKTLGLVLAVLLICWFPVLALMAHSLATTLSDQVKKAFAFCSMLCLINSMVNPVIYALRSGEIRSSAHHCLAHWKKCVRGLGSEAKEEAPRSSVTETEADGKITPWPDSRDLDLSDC
# [4] = target: T3, G-protein coupled receptor 35 (Homo sapiens, UniProt Q9HC97); assay: SAR analysis of Agonists of the GPR35 Receptor using an Image-Based Assay - Set 4. [Related pubchem assays (depositor defined):AID2013, AID2026]; assay type: functional
# T3 sequence (Q9HC97 whole entry): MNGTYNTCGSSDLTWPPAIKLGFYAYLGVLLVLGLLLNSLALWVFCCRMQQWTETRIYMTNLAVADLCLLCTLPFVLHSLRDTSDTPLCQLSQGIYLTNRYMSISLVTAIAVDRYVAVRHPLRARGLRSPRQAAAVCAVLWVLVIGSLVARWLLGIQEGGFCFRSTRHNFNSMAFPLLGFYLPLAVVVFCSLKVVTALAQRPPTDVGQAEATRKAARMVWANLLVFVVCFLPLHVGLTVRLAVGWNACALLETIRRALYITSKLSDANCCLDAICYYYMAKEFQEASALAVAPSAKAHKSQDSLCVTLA
# [5] = target: T4, Probable nicotinate-nucleotide adenylyltransferase (Staphylococcus aureus (strain N315), UniProt P65502); assay type: functional, Staphylococcus aureus subsp. aureus N315;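 as to IC50 Mean: confirmatory dose-response retesting of NadD inhibitor hits first found in an ultra-high-throughput screen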
# T4 sequence (P65502 whole entry): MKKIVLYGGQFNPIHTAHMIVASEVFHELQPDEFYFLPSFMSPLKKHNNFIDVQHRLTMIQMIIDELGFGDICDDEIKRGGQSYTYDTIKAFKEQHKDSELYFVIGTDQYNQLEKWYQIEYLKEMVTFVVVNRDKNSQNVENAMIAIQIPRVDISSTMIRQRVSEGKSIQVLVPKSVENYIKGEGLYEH
# [6] = test system: Streptococcus sp. 'group A'; assay: Streptococcus pyogenes SK(-)GAS viability under kanamycin – luminescence, BacTiterGlo, confirmation, counter-screen for streptokinase expression inhibitor project, dose response (AID 1900); assay type: functional, organism-based
# [7] = target: T5, Cannabinoid receptor 1 (Homo sapiens, UniProt P21554); assay: SAR analysis of agonists of the Cannabinoid Receptor 1 using an Image-Based Assay - Set 4. [Related pubchem assays (depositor defined):AID2013, AID2026]; assay type: functional
# T5 sequence (P21554 whole entry): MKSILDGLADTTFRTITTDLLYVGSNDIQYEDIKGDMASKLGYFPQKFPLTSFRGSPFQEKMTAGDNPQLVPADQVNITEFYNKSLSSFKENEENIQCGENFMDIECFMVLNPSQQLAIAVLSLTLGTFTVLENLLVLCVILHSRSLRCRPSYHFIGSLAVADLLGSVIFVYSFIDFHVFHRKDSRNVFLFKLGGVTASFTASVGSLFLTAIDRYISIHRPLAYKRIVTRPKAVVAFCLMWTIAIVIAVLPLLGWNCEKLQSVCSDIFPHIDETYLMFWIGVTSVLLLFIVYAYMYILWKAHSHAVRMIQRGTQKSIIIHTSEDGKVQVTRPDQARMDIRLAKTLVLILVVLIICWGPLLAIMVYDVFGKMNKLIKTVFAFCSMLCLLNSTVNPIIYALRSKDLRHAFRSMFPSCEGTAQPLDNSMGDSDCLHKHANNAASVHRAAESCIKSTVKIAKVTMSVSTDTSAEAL
# [8] = target: T4, Probable nicotinate-nucleotide adenylyltransferase; assay type: functional, Staphylococcus aureus subsp. aureus N315; details: read-out: IC50_Mean
# [9] = target: T6, Streptokinase A (Streptococcus pyogenes serotype M1, UniProt P10520); assay: viability-normalized secreted streptokinase activity reduction – plasminogen activation absorbance, OD405, dose response (AID 1914); assay type: functional, Streptococcus pyogenes M1 GAS;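 also: secreted streptokinase activity via plasminogen activation per viability signal from cell pellet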
# T6 sequence (P10520 whole entry): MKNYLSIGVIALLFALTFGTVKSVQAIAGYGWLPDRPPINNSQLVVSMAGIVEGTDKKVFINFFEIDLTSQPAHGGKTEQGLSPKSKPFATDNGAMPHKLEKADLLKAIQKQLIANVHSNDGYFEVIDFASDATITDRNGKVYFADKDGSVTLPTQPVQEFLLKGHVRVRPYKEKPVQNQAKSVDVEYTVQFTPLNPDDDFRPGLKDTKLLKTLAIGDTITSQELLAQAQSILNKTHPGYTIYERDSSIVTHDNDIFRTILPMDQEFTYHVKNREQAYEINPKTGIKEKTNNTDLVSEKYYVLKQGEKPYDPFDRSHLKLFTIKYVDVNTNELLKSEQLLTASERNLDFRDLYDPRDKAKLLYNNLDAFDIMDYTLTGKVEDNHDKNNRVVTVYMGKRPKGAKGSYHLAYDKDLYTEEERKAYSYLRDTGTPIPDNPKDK
# [10] = target: T5, Cannabinoid receptor 1; assay: SAR analysis of antagonists of the Cannabinoid Receptor 1 using an Image-Based Assay - Set 4. [Related pubchem assays (depositor defined):AID2013, AID2026]; assay type: functional
# [11] = target: T2, Cannabinoid receptor 2; assay: SAR analysis of agonists of the Cannabinoid Receptor 2 using an Image-Based Assay - Set 3. [Related pubchem assays (depositor defined):AID2013, AID2026]; assay type: functional
# [12] = test system: Streptococcus; assay: GAS UMAA2166 growth inhibition – luminescence, BacTiterGlo, counter-screen for streptokinase expression inhibitor project, dose response (AID 1915); assay type: functional, organism-based;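 also: potency for reduction of bacterial viability or growth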
# [13] = target: T3, G-protein coupled receptor 35; assay: SAR analysis of Antagonists of the GPR35 Receptor using an Image-Based Assay - Set 6. [Related pubchem assays (depositor defined):AID2013, AID2026]; assay type: functional
# [14] = target: T7, Coagulation factor XII (Homo sapiens, UniProt P00748); assay type: functional;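 also: activated factor XIIa alpha cleaving a fluorogenic AMC peptide substrate; inhibitor potency from loss of enzyme activity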
# T7 sequence (P00748 whole entry): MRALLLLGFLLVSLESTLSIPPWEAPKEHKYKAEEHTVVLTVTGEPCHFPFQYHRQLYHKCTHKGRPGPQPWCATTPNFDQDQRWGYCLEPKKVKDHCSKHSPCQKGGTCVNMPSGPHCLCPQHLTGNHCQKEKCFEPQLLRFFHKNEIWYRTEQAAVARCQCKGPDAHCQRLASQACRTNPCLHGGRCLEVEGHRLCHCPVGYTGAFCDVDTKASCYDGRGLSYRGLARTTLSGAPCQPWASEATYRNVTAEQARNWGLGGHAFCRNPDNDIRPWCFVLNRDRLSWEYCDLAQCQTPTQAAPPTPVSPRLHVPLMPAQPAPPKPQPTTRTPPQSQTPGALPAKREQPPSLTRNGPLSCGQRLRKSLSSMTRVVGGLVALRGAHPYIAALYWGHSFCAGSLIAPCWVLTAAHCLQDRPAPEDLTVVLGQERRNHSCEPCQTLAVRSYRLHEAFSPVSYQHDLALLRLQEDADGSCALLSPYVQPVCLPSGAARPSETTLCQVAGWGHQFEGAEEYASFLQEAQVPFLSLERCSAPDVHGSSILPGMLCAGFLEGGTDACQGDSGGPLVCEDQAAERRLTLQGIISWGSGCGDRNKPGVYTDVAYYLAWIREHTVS
# [15] = target: T8, Lytic switch protein BZLF1 (Epstein-Barr virus (strain B95-8) (HHV-4) (Human herpesvirus 4), UniProt P03206); assay: inhibition of BZLF1 ZTA DNA binding – biochemical, fluorescence polarization, Epstein-Barr virus, 1536-well, counter-screen for EBNA-1 inhibitor project, dose response (AID 2377); parameters: species or system human gammaherpesvirus 4;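 also: fluorescence polarization of Cy5-labelled ZRE DNA probe bound by purified Zta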
# T8 sequence (P03206 whole entry): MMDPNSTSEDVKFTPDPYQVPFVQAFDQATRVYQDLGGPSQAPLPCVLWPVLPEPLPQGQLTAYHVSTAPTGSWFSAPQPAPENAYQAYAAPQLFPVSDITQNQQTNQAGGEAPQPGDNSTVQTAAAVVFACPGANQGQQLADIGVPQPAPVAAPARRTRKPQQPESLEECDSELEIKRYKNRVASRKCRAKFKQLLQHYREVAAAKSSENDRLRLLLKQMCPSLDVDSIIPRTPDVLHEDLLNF
# [16] = target: T9, Epstein-Barr nuclear antigen 1 (Epstein-Barr virus (strain B95-8) (HHV-4) (Human herpesvirus 4), UniProt P03211); assay: inhibition of EBV nuclear antigen 1 DNA binding – biochemical, fluorescence polarization, 1536-well, dose response (AID 2381); parameters: species or system human gammaherpesvirus 4;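 also: fluorescence polarization of a Cy5 DNA probe bound by EBNA-1 protein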
# T9 sequence (P03211 whole entry): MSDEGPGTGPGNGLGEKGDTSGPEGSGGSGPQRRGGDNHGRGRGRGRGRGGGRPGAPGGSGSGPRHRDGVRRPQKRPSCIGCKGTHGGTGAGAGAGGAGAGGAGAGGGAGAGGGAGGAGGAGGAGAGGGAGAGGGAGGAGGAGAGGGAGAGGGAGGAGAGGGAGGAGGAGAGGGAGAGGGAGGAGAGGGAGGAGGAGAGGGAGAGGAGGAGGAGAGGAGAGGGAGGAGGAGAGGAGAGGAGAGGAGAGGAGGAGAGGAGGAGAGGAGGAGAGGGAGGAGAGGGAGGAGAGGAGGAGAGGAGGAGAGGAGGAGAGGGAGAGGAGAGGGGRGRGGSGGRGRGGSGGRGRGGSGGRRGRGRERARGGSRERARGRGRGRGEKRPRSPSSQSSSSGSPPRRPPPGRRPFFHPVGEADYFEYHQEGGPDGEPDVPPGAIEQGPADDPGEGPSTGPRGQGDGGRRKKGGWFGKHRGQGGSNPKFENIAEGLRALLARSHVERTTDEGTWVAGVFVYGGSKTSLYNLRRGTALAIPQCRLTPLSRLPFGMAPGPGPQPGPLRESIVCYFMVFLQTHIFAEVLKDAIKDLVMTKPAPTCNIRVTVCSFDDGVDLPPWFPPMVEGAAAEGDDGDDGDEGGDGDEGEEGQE
# [17] = HepG2 cell cytotoxicity, dose response, cytotoxicity control for non-replicating M. tuberculosis project (AID 489018); assay type: functional; details: Mycobacterium tuberculosis
# [18] = cells; assay type: functional
# [19] = target: T10, Short transient receptor potential channel 4 (Mus musculus, UniProt Q9QUQ5); assay: block of DAMGO-driven TRPC4 calcium entry – cell-based, HEK293 TRPC4/mu-opioid, Fluo-4 calcium, dose response (AID 434942); assay type: functional;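 also: potency of inhibitors blocking the TRPC4 calcium response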
# T10 sequence (Q9QUQ5 whole entry): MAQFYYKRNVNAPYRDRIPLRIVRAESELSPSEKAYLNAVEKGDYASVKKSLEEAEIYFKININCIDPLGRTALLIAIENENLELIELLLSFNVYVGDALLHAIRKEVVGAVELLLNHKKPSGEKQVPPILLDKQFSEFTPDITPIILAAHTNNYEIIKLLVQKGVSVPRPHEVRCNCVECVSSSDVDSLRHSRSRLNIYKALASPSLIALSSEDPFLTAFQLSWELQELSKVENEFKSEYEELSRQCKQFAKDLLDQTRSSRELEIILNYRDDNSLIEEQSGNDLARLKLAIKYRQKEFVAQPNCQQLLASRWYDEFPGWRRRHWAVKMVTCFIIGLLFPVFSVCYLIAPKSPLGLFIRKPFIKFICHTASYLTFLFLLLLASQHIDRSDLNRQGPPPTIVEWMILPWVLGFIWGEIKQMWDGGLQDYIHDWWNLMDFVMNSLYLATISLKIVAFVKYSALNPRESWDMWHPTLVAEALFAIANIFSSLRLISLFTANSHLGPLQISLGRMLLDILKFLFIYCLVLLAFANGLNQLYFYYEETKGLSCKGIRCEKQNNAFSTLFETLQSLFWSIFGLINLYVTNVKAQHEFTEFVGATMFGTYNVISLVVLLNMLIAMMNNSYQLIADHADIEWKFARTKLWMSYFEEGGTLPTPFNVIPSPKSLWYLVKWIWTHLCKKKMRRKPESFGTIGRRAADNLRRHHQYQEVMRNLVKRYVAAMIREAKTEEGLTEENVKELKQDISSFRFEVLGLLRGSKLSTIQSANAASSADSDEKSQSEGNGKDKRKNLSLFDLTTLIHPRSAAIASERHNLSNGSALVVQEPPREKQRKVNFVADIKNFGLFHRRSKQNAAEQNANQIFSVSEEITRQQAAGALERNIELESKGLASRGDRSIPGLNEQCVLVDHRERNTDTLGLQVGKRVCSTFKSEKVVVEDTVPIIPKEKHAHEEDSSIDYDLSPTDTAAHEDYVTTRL
# [20] = cells; assay type: functional, cell-based
# [21] = cells; assay type: functional, cell-based; remark: listed apart in the source
SMILES,IC50 [2],IC50 [3],EC50 [4],EC50 [7],IC50 [10],EC50 [11],IC50 [13],also measured
COc1ccc(CC(C)Nc2cccc(F)c2)cc1 (stereo not drawn),,,,,,,,AC50 [1]: 14.5 µM (active)
Cc1ccc(-c2cc(C(=O)Nc3ccc(S(=O)(=O)Nc4cc(C)on4)cc3)c3ccccc3n2)c(C)c1,> 32 µM (inactive),> 32 µM (inactive),> 32 µM (inactive),> 32 µM (inactive),9.14 µM (active),> 32 µM (inactive),> 32 µM (inactive),IC50 [5]: 4.38 µM (active); EC50 [6]: 12.1 µM (active); IC50 [8]: 15.4 µM (active); EC50 [9]: 9.4 µM (active); EC50 [12]: 25.2 µM (active); IC50 [14]: > 50 µM (inactive)
Cc1ccc(Nc2nc(NCC3CCCO3)nc(N)c2[N+](=O)[O-])cc1C (stereo not drawn),,,,,,,,IC50 [15]: > 111 µM (not active); IC50 [16]: 6.09 µM (active)
O=C(COC(=O)CCc1c[nH]c2ccccc12)Nc1ccc([N+](=O)[O-])cc1,,,,,,,,CC50 [17]: > 20 µM (active); IC50 [18]: 9.62 µM (active)
Cc1nn(C(=O)c2cccnc2)c(C)c1Sc1ccccc1,,,,,,,,EC50 [19]: 3.35 µM (active); EC50 [20]: > 350 µM (not active); EC50 [21]: > 350 µM (not active)
Cc1nc(N2CCN(C(=O)c3ccc4c(c3)OCCO4)CC2)c2c3c(sc2n1)CCCC3,21.4 µM (inactive),24.2 µM (inactive),> 32 µM (inactive),> 32 µM (inactive),3.36 µM (active),> 32 µM (inactive),> 32 µM (inactive),
CCOc1cc(C(=O)OCC(=O)c2c(N)n(C)c(=O)n(C)c2=O)cc(OCC)c1OCC,,,,,,,,IC50 [15]: > 111 µM (not active); IC50 [16]: 19.3 µM (not active)
O=C(NC1CCCCCCC1)c1cc(F)c(F)cc1Cl,,,,,,,,AC50 [1]: 52.8 µM (active)
CCN(CC)S(=O)(=O)c1ccc(NC(=O)c2cc(-c3ccccc3)nc3ccccc23)cc1,> 32 µM (inactive),> 10.8 µM (inactive),> 32 µM (inactive),> 32 µM (inactive),0.352 µM (active),> 32 µM (inactive),> 32 µM (inactive),
